SMILES strings stand for the structures. pIC50: −log10 of the molar value.

Holding throughout (type): biochemical
The target in one test is T1, p38a (Homo sapiens, UniProt Q16539).
T1 construct: purchased Caliper Life Sciences
Description: Desktop Profiler kinase panel, p38a. As to conditions: 10 micromolar concentration of the compound; read-out: Percent Inhibition p38a. As for the experimental part:
(§1) The Aurora assays described here are performed on two Caliper Life Sciences systems: the LC3000 and the Desktop Profiler. These provide data on enzyme activity via measurement of the relative amounts of phosphorylated or unphosphorylated fluorescently labelled substrate peptide at the end of an enzymatic reaction. These different states of peptide are resolved by applying a potential difference across the sample. The presence of the charged phosphate group on the product (as opposed to the substrate) causes a different peptide mobility between the two peptides. This is visualized by excitation of the fluorescent label on the substrate and product peptides and represented as peaks within the analysis software.
(§2) The Desktop Profiler utilizes the same principle as the LC3000 for calculating percentage conversion of a substrate to product. Caliper Life Sciences provides proprietary flash frozen pre-made 384 well plates containing selected kinases. Each column in the 384 well plate contains a particular selected kinase. A second plate, the ‘substrate plate’ contains a mix of fluorescently labeled peptide substrate and ATP. […]
(§3) Reading of the plate in the Profiler is identical to the LC3000, and the ratio between substrate and product peaks provides the activity of the enzyme in that well. […]

A further test addresses T2, MET (Homo sapiens, UniProt P08581).
T2 construct: purchased Caliper Life Sciences
Description: Desktop Profiler kinase panel, MET. Particulars: 10 micromolar concentration of the compound; read-out: Percent Inhibition MET. The method, then: as §1, §2, §3

The next test concerns the target T3, GST-Aurora A (Homo sapiens, UniProt O14965).
T3 construct: N-terminal GST fusion with full length Aurora A (1-403 amino acids); purchased Carna Biosciences 05-101
T3 sequence (O14965 1-403): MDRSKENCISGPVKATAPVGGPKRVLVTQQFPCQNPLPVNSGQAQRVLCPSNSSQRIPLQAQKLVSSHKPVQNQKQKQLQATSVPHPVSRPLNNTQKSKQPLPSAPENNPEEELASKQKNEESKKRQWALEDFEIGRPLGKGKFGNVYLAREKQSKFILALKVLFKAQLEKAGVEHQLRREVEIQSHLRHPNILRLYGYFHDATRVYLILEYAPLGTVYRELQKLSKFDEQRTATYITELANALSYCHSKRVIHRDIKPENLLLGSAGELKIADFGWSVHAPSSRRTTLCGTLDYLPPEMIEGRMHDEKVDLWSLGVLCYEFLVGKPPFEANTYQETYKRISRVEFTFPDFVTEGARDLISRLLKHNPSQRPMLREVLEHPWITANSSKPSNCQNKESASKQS
In words: Aurora A IC50, Caliper LC3000 mobility shift assay. As to conditions: LC3000 method; 15 uM ATP (the KM value); read-out: Aurora Kinase A Activity (IC50). The gist of the method: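 GST-tagged full-length Aurora A (0.067 ng/ul) with 15 uM ATP (KM) and 1 uM FITC-LRRASLG peptide in 100 mM HEPES pH 7.5, 1 mM MgCl2, 1 mM DTT, Brij-35; 90 min at 25 C, EDTA stop. Off-chip mobility shift read of substrate-to-product conversion; IC50 from sigmoidal dose-response.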

T1 sequence (Q16539 whole entry): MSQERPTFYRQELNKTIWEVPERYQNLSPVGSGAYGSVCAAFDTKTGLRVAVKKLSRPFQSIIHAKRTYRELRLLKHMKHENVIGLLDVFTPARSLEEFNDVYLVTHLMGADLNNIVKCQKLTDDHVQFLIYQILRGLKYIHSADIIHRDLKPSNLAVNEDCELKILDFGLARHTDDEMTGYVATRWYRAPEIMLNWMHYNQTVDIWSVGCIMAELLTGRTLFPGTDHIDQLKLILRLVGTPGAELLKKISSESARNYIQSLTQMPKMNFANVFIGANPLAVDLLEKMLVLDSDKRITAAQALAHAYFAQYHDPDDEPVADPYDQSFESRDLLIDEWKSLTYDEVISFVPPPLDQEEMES
T2 sequence (P08581 25-1390): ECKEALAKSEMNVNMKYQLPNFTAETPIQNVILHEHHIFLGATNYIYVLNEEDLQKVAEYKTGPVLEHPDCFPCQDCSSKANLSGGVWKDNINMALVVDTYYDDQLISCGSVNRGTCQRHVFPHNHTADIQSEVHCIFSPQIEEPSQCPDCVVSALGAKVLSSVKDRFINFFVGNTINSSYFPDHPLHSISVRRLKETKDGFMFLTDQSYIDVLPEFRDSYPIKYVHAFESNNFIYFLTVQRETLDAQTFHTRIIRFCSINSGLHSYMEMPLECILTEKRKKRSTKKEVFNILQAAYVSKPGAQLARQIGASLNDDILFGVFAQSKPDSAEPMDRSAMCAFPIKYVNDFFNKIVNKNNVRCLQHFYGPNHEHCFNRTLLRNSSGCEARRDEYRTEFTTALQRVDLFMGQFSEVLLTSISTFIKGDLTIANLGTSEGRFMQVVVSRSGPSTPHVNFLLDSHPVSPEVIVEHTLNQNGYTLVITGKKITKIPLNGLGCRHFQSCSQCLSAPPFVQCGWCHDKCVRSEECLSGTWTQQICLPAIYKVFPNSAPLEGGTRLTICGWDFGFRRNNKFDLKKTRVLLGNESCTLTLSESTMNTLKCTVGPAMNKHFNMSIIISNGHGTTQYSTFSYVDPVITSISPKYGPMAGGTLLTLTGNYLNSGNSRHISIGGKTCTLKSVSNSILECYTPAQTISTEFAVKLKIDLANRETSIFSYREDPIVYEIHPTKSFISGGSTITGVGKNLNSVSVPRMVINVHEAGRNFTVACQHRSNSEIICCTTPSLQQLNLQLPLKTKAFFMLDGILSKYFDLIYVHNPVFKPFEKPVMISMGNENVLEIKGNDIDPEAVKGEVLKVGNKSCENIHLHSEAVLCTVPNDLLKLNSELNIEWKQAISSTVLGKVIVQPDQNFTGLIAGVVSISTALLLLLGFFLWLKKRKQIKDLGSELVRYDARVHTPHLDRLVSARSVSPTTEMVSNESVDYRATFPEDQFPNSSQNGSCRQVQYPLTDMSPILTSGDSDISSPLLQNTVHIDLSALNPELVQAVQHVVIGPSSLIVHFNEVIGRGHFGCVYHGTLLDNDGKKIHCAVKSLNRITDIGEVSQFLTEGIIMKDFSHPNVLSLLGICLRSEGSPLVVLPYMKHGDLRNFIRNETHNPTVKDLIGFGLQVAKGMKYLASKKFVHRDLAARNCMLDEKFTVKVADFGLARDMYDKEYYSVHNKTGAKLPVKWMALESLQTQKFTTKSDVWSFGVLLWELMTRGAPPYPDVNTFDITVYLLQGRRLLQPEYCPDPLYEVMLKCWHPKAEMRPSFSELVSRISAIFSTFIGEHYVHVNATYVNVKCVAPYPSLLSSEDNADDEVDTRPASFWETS

Regarding `CC(=O)Nc1ccc(Oc2ccc3c(=O)[nH]c4ncccc4c3c2)cc1` [Example 81, N-[4-(6-Oxo-5,6-dihydro-benzo[c][1,8]naphthyridin-9-yloxy)-phenyl]-acetamide], the results for the inhibition at 10 µM at p38a and on MET were 50 to 70% and > 90%, respectively.
For the compound `O=c1[nH]c2ncccc2c2cc(Nc3cccc(F)c3)ccc12` [Example 31, 9-(3-Fluoro-phenylamino)-5H-benzo[c][1,8]naphthyridin-6-one], the negative logarithm of the IC50 (pIC50) on GST-Aurora A is < 7.00.

Source of the values: patent publication US8735584B2 (Merck Patent GmbH, priority 2008, dated 2014).
